Biological target: ATP-dependent translocase ABCB1 (Homo sapiens, UniProt P08183)
Test: TP_TRANSPORTER: increase in Calcein intracellular accumulation (Calcein: 50 mg/L, Carvedilol: 10 uM) in Hs578T-Dox cells
Type: functional, cell-based

Chain of ATP-dependent translocase ABCB1 (P08183 whole entry): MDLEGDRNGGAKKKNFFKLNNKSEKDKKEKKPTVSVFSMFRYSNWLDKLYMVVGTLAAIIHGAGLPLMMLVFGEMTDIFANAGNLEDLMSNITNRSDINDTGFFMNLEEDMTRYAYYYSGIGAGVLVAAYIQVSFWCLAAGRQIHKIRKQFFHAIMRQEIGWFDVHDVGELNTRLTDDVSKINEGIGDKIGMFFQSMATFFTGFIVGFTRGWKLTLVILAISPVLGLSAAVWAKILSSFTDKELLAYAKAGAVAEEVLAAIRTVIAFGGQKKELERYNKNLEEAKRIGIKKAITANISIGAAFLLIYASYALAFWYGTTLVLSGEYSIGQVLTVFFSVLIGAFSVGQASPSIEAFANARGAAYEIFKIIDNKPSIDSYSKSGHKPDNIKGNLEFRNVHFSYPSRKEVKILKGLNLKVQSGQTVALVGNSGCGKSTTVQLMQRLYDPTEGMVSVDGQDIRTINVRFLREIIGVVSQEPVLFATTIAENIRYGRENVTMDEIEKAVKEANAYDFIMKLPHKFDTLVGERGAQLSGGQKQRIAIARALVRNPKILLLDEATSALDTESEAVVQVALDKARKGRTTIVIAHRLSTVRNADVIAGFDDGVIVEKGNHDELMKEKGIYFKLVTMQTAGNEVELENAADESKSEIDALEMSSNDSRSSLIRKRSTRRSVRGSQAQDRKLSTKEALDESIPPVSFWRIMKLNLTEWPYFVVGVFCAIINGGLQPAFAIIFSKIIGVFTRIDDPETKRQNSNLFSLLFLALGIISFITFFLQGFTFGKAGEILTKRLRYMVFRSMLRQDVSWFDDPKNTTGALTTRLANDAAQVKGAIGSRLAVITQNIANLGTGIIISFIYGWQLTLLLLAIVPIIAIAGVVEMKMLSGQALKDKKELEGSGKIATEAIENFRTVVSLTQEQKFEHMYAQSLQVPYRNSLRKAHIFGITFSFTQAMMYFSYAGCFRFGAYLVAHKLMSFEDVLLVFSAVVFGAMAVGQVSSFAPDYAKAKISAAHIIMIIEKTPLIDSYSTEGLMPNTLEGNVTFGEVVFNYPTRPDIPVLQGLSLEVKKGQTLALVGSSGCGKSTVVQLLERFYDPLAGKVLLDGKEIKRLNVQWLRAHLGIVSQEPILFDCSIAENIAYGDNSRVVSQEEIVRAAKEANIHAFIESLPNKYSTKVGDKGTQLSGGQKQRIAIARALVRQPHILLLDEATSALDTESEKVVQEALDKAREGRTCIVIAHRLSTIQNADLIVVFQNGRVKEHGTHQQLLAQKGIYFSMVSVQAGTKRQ

## COc1ccccc1OCCNCC(O)COc1cccc2[nH]c3ccccc3c12 (stereo unspecified) [CARVEDILOL]
  Activity: inhibitor [+]

— ChEMBL document CHEMBL2073985, “Increase in doxorubicin cytotoxicity by carvedilol inhibition of P-glycoprotein activity” (Biochem Pharmacol, 1999)
